From patent US20170360863A1, “USE OF POLYACETYLENIC GLYCOSIDES FOR SUPPRESSION OF GRANULOCYTIC MYELOID-DERIVED SUPPRESSOR CELL ACTIVITIES AND TUMOR METASTASIS” (Academia Sinica, priority 2014, published 2017)

Tests used:
[1] = system: granulocytic and monocytic MDSCs; assay: MDSC populations in organs of tumor-resected mice (flow cytometry); format: in vivo, BALB/c mice; settings: 23 days post tumor resection
Text: Lung tissues of test mice were harvested and minced with 150 U/mL Type I Collagenase in tissue grinders for 20 to 50 times. After digestion and lysed with ACK buffer, grinded tissues were collected and filtered through 40 μm cell strainer. Spleen tissues were minced gently with PBS in tissue grinders. After lysed with ACK buffer, cells were collected for further analysis. Blood were lysed with ACK buffer for 3 times and harvested for further analysis. All cells were collected and stained with anti-CD11b, and anti-Ly6G/Ly-6C for flow cytometry analysis.
The myeloid derived suppressor cell (MDSC) populations in spleen tissue of each test group were investigated.
(§1) Mice were sacrificed at 23 days post tumor resection, lung, liver and spleen of test mice were excised and tumor metastasis measured by bioluminescent imaging.

[2] = system: 4T1-luc2 tumor metastasis; assay: 4T1-luc2 tumor resection model, tumor metastasis; format: in vivo, BALB/c mice; settings: 23 days post tumor resection
Description: 4T1-luc2 cells (5×10^5 cells/100 μl PBS) were orthotopically implanted into mammary fat-pad of BALB/c mice. Primary tumor growth was evaluated by measuring tumor weight and by monitoring bioluminescent imaging of mammary tumors (BL1) every 7 days. For tumor resection mouse model, 4T1-luc2 cells (5×10^5 cells/100 μl PBS) were orthotopically implanted into mammary fat pad of test mice. At day 21 post tumor implantation, the tumor mass was gently surgically removed. Bioluminescent imaging of metastatic tumor was monitored by using Non-invasive in vivo imaging system (IVIS). The body weight of the test mouse was approximately 25 g.
For this experiment, at 21 days post orthotopic tumor implantation, the tissue mass of 4T1-luc2 tumors in test mice was surgically removed.
At 21 days post implantation, the tumor mass was surgically removed gently. Following surgery, each treatment group was randomly divided into control, F1 and the docetaxel groups (i.e., via iv injection with 10 mg docetaxel/kg every other 3 days). […] The BLI values for each mouse was quantitatively measured and pooled for each test group.
as §1

## CC(=O)O[C@@]12CO[C@@H]1C[C@H](O)[C@@]1(C)C(=O)[C@H](O)C3=C(C)[C@@H](OC(=O)[C@H](O)[C@@H](NC(=O)OC(C)(C)C)c4ccccc4)C[C@@](O)([C@@H](OC(=O)c4ccccc4)[C@H]21)C3(C)C [docetaxel]
[1]
  4T1 tumor-induced accumulation of granulocytic MDSCs in lung, peripheral blood and spleen: significantly reduced
[2]
  tumor metastasis into lung (bioluminescent imaging of excised organs): effectively inhibited
[2]; BP-E-F1 oral 5 mg/kg/day, docetaxel iv 10 mg/kg every other 3 days
  BLI value (bioluminescent imaging, whole body): effectively reduce
[2]; F1 oral 5 mg/kg/day, docetaxel iv 10 mg/kg every other 3 days
  metastasis rate: 12.5%
